Reference: PubChem BioAssay AID1259407 (Chemical Carcinogenesis Research Information System (CCRIS), 2018)
Activity calls are given as the source filed them. The rule behind the calls is not given here.

Tested on: CCRIS mutagenicity, Ames/micronucleus/aberration tests
Test: CCRIS mutagenicity studies
[1] = Test System: AMES SALMONELLA TYPHIMURIUM, Strain/Indicator: TA100, Metabolic Activation: NONE, Method: PREINCUBATION
[2] = Test System: AMES SALMONELLA TYPHIMURIUM, Strain/Indicator: TA98, Metabolic Activation: NONE, Method: PREINCUBATION
[3] = Test System: AMES SALMONELLA TYPHIMURIUM, Strain/Indicator: TA100, Metabolic Activation: RAT, LIVER, S-9, AROCLOR 1254, Method: STANDARD PLATE
[4] = Test System: AMES SALMONELLA TYPHIMURIUM, Strain/Indicator: TA100, Metabolic Activation: NONE, Method: STANDARD PLATE
[5] = Test System: AMES SALMONELLA TYPHIMURIUM, Strain/Indicator: TA98, Metabolic Activation: NONE, Method: STANDARD PLATE
[6] = Test System: AMES SALMONELLA TYPHIMURIUM, Strain/Indicator: TA102, Metabolic Activation: NONE, Method: STANDARD PLATE

SMILES: CCCCN(C[C@H](CO)Cc1ccccc1)N=O
- mutagenic call [1]: inactive; negative
- mutagenic call (Test System: AMES SALMONELLA TYPHIMURIUM, Strain/Indicator: TA100, Metabolic Activation: RAT, LIVER, S-9, PCB, Method: PREINCUBATION): active; positive

SMILES: c1ccc2c3c(ccc2c1)-c1cccc2cccc-3c12
- mutagenic call (Test System: AMES SALMONELLA TYPHIMURIUM, Strain/Indicator: TA97A, Metabolic Activation: NONE, Method: PREINCUBATION): inactive; negative
- mutagenic call [2]: inactive; negative
- mutagenic call [1]: inactive; negative
- mutagenic call [3]: active; positive

SMILES: Oc1cc(Cl)ccc1Oc1ccc(Cl)cc1Cl
- mutagenic call (End Point: In vitro chromosomal aberrations, Test System: Chinese hamster ovary strain K1-BH4 cells, Metabolic Activation: None): inactive; negative
- mutagenic call (End Point: In vitro chromosomal aberrations, Test System: Chinese hamster ovary strain K1-BH4 cells, Metabolic Activation: S-9): inactive; negative
- mutagenic call (End Point: In vivo chromosomal aberrations, Test System: Bone marrow, Species: Rat, Strain/Sex: Wistar/Female, Route: Gavage): inactive; negative
- mutagenic call (End Point: In vivo chromosomal aberrations, Test System: Bone marrow, Species: Rat, Strain/Sex: Wistar/Male, Route: Gavage): inactive; negative
- mutagenic call (End Point: In vivo micronucleus, Test System: Bone marrow, Species: Mouse, Strain/Sex: CD-1 SPF Swiss albino, Route: Gavage): inactive; negative
- mutagenic call (Test System: Ames Salmonella typhimurium, Strain/Indicator: TA98, Metabolic Activation: None, Method: Preincubation): inactive; negative
- mutagenic call (Test System: Ames Salmonella typhimurium, Strain/Indicator: TA98, Metabolic Activation: None, Method: Standard Plate): inactive; negative
- mutagenic call (Test System: Ames Salmonella typhimurium, Strain/Indicator: TA98, Metabolic Activation: S-9, Method: Preincubation): inactive; negative
- mutagenic call (Test System: Ames Salmonella typhimurium, Strain/Indicator: TA98, Metabolic Activation: S-9, Method: Standard Plate): inactive; negative
- mutagenic call (Test System: Ames Salmonella typhimurium, Strain/Indicator: TA100, Metabolic Activation: None, Method: Preincubation): inactive; negative
- mutagenic call (Test System: Ames Salmonella typhimurium, Strain/Indicator: TA100, Metabolic Activation: None, Method: Standard Plate): inactive; negative
- mutagenic call (Test System: Ames Salmonella typhimurium, Strain/Indicator: TA100, Metabolic Activation: S-9, Method: Preincubation): inactive; negative
- mutagenic call (Test System: Ames Salmonella typhimurium, Strain/Indicator: TA100, Metabolic Activation: S-9, Method: Standard Plate): inactive; negative
- mutagenic call (Test System: Ames Salmonella typhimurium, Strain/Indicator: TA 1535, Metabolic Activation: None, Method: Preincubation): inactive; negative
- mutagenic call (Test System: Ames Salmonella typhimurium, Strain/Indicator: TA 1535, Metabolic Activation: None, Method: Standard Plate): inactive; negative
- mutagenic call (Test System: Ames Salmonella typhimurium, Strain/Indicator: TA 1535, Metabolic Activation: S-9, Method: Preincubation): inactive; negative
- mutagenic call (Test System: Ames Salmonella typhimurium, Strain/Indicator: TA 1535, Metabolic Activation: S-9, Method: Standard Plate): inactive; negative
- mutagenic call (Test System: Ames Salmonella typhimurium, Strain/Indicator: TA1537, Metabolic Activation: None, Method: Preincubation): inactive; negative
- mutagenic call (Test System: Ames Salmonella typhimurium, Strain/Indicator: TA1537, Metabolic Activation: None, Method: Standard Plate): inactive; negative
- mutagenic call (Test System: Ames Salmonella typhimurium, Strain/Indicator: TA1537, Metabolic Activation: S-9, Method: Preincubation): inactive; negative
- mutagenic call (Test System: Ames Salmonella typhimurium, Strain/Indicator: TA1537, Metabolic Activation: S-9, Method: Standard Plate): inactive; negative
- mutagenic call (Test System: Ames Salmonella typhimurium, Strain/Indicator: TA1538, Metabolic Activation: None, Method: Standard Plate): inactive; negative
- mutagenic call (Test System: Ames Salmonella typhimurium, Strain/Indicator: TA1538, Metabolic Activation: S-9, Method: Standard Plate): inactive; negative

SMILES: NC(=O)N(CCCC(=O)O)N=O
- mutagenic call [1]: active; positive
- mutagenic call (Test System: AMES SALMONELLA TYPHIMURIUM, Strain/Indicator: TA1535, Metabolic Activation: NONE, Method: PREINCUBATION): active; positive
- mutagenic call (Test System: E. COLI B, Strain/Indicator: H/R30R, Metabolic Activation: NONE): active; positive
- mutagenic call (Test System: E. COLI B, Strain/Indicator: HS30R, Metabolic Activation: NONE): active; positive

SMILES: c1ccc2c(OCC3CO3)nsc2c1 (stereo not drawn)
- mutagenic call [4]: active; positive

SMILES: BrCc1ccc2c(c1)-c1cccc3cccc-2c13
- mutagenic call [5]: active; positive
- mutagenic call [4]: active; positive

SMILES: N[C@@H](CCC(=O)N[C@@H](CS)C(=O)NCC(=O)O)C(=O)O
- mutagenic call (Test System: AMES SALMONELLA TYPHIMURIUM, Strain/Indicator: TA92, Metabolic Activation: RAT, KIDNEY, S-9, Method: PREINCUBATION): active; positive
- mutagenic call (Test System: AMES SALMONELLA TYPHIMURIUM, Strain/Indicator: TA92, Metabolic Activation: RAT, KIDNEY, S-9, Method: STANDARD PLATE): active; positive
- mutagenic call (Test System: AMES SALMONELLA TYPHIMURIUM, Strain/Indicator: TA97, Metabolic Activation: RAT, KIDNEY, S-9, Method: PREINCUBATION): active; positive
- mutagenic call (Test System: AMES SALMONELLA TYPHIMURIUM, Strain/Indicator: TA97, Metabolic Activation: RAT, KIDNEY, S-9, Method: STANDARD PLATE): active; positive
- mutagenic call [1]: inactive; negative
- mutagenic call (Test System: AMES SALMONELLA TYPHIMURIUM, Strain/Indicator: TA100, Metabolic Activation: RAT, KIDNEY, S-9, Method: PREINCUBATION): active; positive
- mutagenic call (Test System: AMES SALMONELLA TYPHIMURIUM, Strain/Indicator: TA100, Metabolic Activation: RAT, KIDNEY, S-9, Method: STANDARD PLATE): active; positive
- mutagenic call (Test System: AMES SALMONELLA TYPHIMURIUM, Strain/Indicator: TA102, Metabolic Activation: NONE, Method: PREINCUBATION): inactive; negative
- mutagenic call [6]: inactive; negative
- mutagenic call (Test System: AMES SALMONELLA TYPHIMURIUM, Strain/Indicator: TA102, Metabolic Activation: RAT, KIDNEY, S-9, Method: PREINCUBATION): active; positive
- mutagenic call (Test System: AMES SALMONELLA TYPHIMURIUM, Strain/Indicator: TA104, Metabolic Activation: RAT, KIDNEY, S-9, Method: PREINCUBATION): active; positive
- mutagenic call (Test System: AMES SALMONELLA TYPHIMURIUM, Strain/Indicator: TA104, Metabolic Activation: RAT, KIDNEY, S-9, Method: STANDARD PLATE): inactive; negative
- mutagenic call (Test System: AMES SALMONELLA TYPHIMURIUM, Strain/Indicator: TA1535, Metabolic Activation: RAT, KIDNEY, S-9, Method: PREINCUBATION): inactive; negative
- mutagenic call (Test System: AMES SALMONELLA TYPHIMURIUM, Strain/Indicator: TA1537, Metabolic Activation: RAT, KIDNEY, S-9, Method: PREINCUBATION): inactive; negative
- mutagenic call (Test System: Mouse lymphoma, Strain/Indicator: L5178Y (tk+/tk-), Metabolic Activation: None, Method: Suspension/plate): active; equivocal (previous evaluation positive)
- mutagenic call (Test System: Mouse lymphoma, Strain/Indicator: L5178Y (tk+/tk-), Metabolic Activation: Rat, Liver, S-9, Aroclor 1254, Method: Suspension/plate): inactive; negative

SMILES: COc1ccc2c(c1)C(=O)c1nccc3cc(OC)c(OC)c-2c13
- mutagenic call (Test System: AMES SALMONELLA TYPHIMURIUM, Strain/Indicator: TA100, Metabolic Activation: RAT, LIVER, S-9, PHENOBARBITAL AND BETA-NAPHTHOFLAVONE, Method: PREINCUBATION): active; positive

SMILES: COC1=C(N)C(=O)c2nc(-c3nc(C(=O)O)c(C)c(-c4ccc(OC)c(OC)c4O)c3N)ccc2C1=O
- mutagenic call [6]: active; positive
- mutagenic call (Test System: AMES SALMONELLA TYPHIMURIUM, Strain/Indicator: TA2638, Metabolic Activation: NONE, Method: STANDARD PLATE): active; positive
- mutagenic call (Test System: AMES SALMONELLA TYPHIMURIUM, Strain/Indicator: TA2638A, Metabolic Activation: NONE, Method: STANDARD PLATE): active; positive
- mutagenic call (Test System: E. COLI, Strain/Indicator: WP2 (PKM101), Metabolic Activation: NONE, Method: STANDARD PLATE): active; positive
- mutagenic call (Test System: E. COLI, Strain/Indicator: WP2 UVRA (PKM101), Metabolic Activation: NONE, Method: STANDARD PLATE): active; positive
- mutagenic call (Test System: UDS HUMAN FIBROBLASTS, Strain/Indicator: THY INCORP (NON-S-PHASE), Metabolic Activation: NONE, Method: AUTORADIOGRAPHY): active; positive

SMILES: Nc1cc(Cl)cc(Cl)c1O
- mutagenic call [2]: inactive; negative
- mutagenic call [5]: inactive; negative
- mutagenic call [1]: inactive; negative
- mutagenic call [4]: inactive; negative
- mutagenic call (Test System: CHINESE HAMSTER V-79, Strain/Indicator: V-79/6-THIOGUANINE, Metabolic Activation: NONE): inactive; negative

SMILES: Clc1cc2ccccc2c2ccccc12
- mutagenic call [5]: inactive; negative
- mutagenic call (Test System: AMES SALMONELLA TYPHIMURIUM, Strain/Indicator: TA98, Metabolic Activation: RAT, LIVER, S-9, AROCLOR 1254, Method: STANDARD PLATE): active; positive
- mutagenic call [4]: inactive; negative
- mutagenic call [3]: inactive; negative
